Two compounds from patent US11278595B2, “Peptides comprising non-natural amino acids and methods of making and using the same” (Longevity Biotech, Inc., priority 2013, dated 2022) can be followed below.

Numbered stars: 1 amine (or outer) side, 2 acyl side, 3 side chain; on linkers, the order of the positions; unused ones are H or OH. Square brackets hold non-standard residues; d marks the D form. Peptide text beside a SMILES is read from it. ξ: configuration not given here. ξ(4-Aminopyrrolidine-3-CO) = O=C(C1CNCC1N[*:1])[*:2]; X3 = O=C(C1CCCC1N[*:1])[*:2]; β3hK = NCCCC[C@H](N)CC(=O)O; βAla = NCCC(=O)O

Series [1] concerns anti-CD3 stimulated naïve CD4+CD25− T cells. Kind of series: Inhibition assay of suppressive function of Treg from treated donor mice. The class given is cell-based. Conditions: compared to PBS Treg populations; 1:1 Treg to responder ratio; donors injected daily/5 days/i.p. As for the experimental part: Immediately following the final dose, mice were sacrificed, and single-cell suspensions were prepared from inguinal lymph nodes and spleens. CD4+ T cell populations from spleens and lymph nodes were enriched by negative selection with CD4-enrichment columns (R&D Systems, Minneapolis, Minn.), followed by CD25-PE positive selection with AutoMACS (Miltenyi Biotec, Auburn, Calif.). As determined by flow cytometric analysis, populations of Tregs and Teffs were consistently […] using this method (12). T cells were cultured in complete RPMI 1640 (RPMI 1640 [Invitrogen, Carlsbad, Calif.] supplemented with 10% FBS, 2 mM L-gluta-mine, 25 mM HEPES, 1 mM sodium pyruvate, […] nonessential amino acids, […] 2-ME, 100 U/ml penicillin, and […] streptomycin [Mediatech, Manassas, Va.]) in the presence of anti-CD3 (145-2C11; BD Pharmingen, San Diego, Calif.), 4YSyn, or N-4YSyn. […]
To assess whether VIP, LBT-V101 (SEQ ID NO: 22), LBT-V218 (SEQ ID NO: 18) and PBS treated splenocytes (SPC) suppress effector T cell proliferative responses, we evaluated SPC co-cultures from VIP-treated donors for their proliferative capacity in the presence of either anti-CD3. […] To test this hypothesis, we evaluated CD4+CD25+CD62Llow Treg isolated from naïve and VIP-treated mice for their capacity to inhibit CD3-mediated proliferation of CD4+CD25− naïve T cells. […]

Series [2] relates to dopaminergic neurons (TH+/Nissl+) in the SN. Briefly: Parkinson's disease (MPTP) model, adoptive transfer of splenocytes from drug-treated donors. The class given is in vivo. Conditions: MPTP mice; donors 15 ug/day/5 days; FIG. 5. How it is done: Parkinson's Disease (PD) Model (not prophetic): Male C57/BL6 mice, 8-12 w old, housed in the IACUC approved housing were administered an analog described herein as well as a pharmaceutically acceptable carrier for five days at a dose between (0.1 nM and 100 nM). Thereafter, SPC and Tregs from the mice are harvested and then transferred to another set of MPTP intoxicated mice using the following protocol.
Immediately following the final dose, mice were sacrificed, and single-cell suspensions were prepared from inguinal lymph nodes and spleens. […] As determined by flow cytometric analysis, populations of Tregs and Teffs were consistently […] using this method (12). […]
Mice were postmortem transcardially perfused with PBS, followed by 4% para-formaldehyde (Sigma-Aldrich). […] Fluorojade C (FJ-C) staining (Millipore, Billerica, Mass.) was performed on adjacent sections, according to the manufacturer's protocol, to assess de-generating neurons and was quantified using ImageJ. Overall, dopaminergic neuron survival was assessed 7 d following MPTP intoxication and resolution of cell death processes with polyclonal Abs to mouse tyrosine hydroxylase (TH; 1:1000; EMD Chemicals/Calbiochem, San Diego, Calif.) and were counterstained for Nissl substance by thionin staining. […] Quantitation of striatal TH (1:500; EMD Chemicals/Calbiochem, Gibbstown, N.J.) was performed by densitometric analysis. […]

The subject of a further series is protease. Briefly: In vitro protease stability assay. The note with it: FIG. 1; compared to Ro 25-1553 (one lactam bridge). It is filed as in vitro ADME. How it is done:
In Vitro Stability Assay: Stock solutions of the both the naturally occurring peptides as well as peptide analogs are prepared at a concentration of 250 μM (based on UV absorbance) in a 2% DMSO solution of appropriate buffering conditions. Standard solution of proteinase K in addition to other common animal proteases (i.e. Cathepsins, Trypsins, dipeptidyl peptidase IV and chymotrypsin) were prepared at the following concentrations in appropriate buffers separately: Protease K: 250 μg/ml, Chymotrypsin 25 μg/mL and DPP-IV 40 units/ml. For a Protease K assay, the following recipe was followed: 1 μL enzyme was added to 5 μL peptide analog in 44 μL PBS. […] 50 μL of the resulting quenched reaction are then injected onto an analytical reverse phase HPLC, and the amount of starting peptide present quantified by integration of the appropriate chromatogram peak via absorbance at either 220 or 280 nm. […] Half-lives are determined by fitting time dependent peptide concentration to an exponential decay using GraphPad Prism. Samples for some time points will be analyzed by mass spectrometery, and the products observed are used to identify amide bonds cleaved in the course of the reaction. The relative stability enhancement is determined through the comparison of the various analogs with its naturally occurring peptide counterpart. […]

Consider HSDAVFTDNYTRLRKQMAVKKYLNSILN [VIP], for which the “suppressive capacity of Treg on T cell proliferation” value in series [1] is “enhanced suppressive capacity”. In addition, the “neuroprotection after adoptive transfer of splenocytes from drug-treated donors” value in series [2] is given as “neuroprotective”.
Regarding `CC(=O)N[C@@H](Cc1c[nH]cn1)C(=O)NC1CCCC1C(=O)N[C@@H](CC(=O)O)C(=O)N[C@@H](C)C(=O)NC1CCCC1C(=O)N[C@@H](Cc1ccccc1)C(=O)N[C@H](C(=O)N[C@@H](CCC(=O)O)C(=O)N[C@@H](CC(N)=O)C(=O)N[C@@H](Cc1ccc(O)cc1)C(=O)N[C@H](C(=O)N[C@@H](CCCCN)C(=O)N[C@@H](CC(C)C)C(=O)N[C@@H](CCCNC(=N)N)C(=O)N[C@@H](CCCCN)C(=O)N[C@@H](CCC(N)=O)C(=O)N[C@@H](CC(C)C)C(=O)N[C@@H](C)C(=O)N[C@@H](C)C(=O)NC1CNCC1C(=O)N[C@@H](CCCCN)C(=O)N[C@@H](Cc1ccc(O)cc1)C(=O)NC1CCCC1C(=O)N[C@@H](CC(N)=O)C(=O)N[C@@H](CC(=O)O)C(=O)N[C@@H](CC(C)C)C(=O)N[C@@H](CCCCN)CC(=O)N[C@@H](CCCCN)C(=O)NCC(=O)NCCC(=O)N[C@H](C(N)=O)[C@@H](C)O)[C@@H](C)O)[C@@H](C)O` (stereo partly drawn) [LBT-V208, Ac-HxDAxFTENYTKLRKQLAAzKYxNDLkKGgT] (Ac-H[X3]DA[X3]FTENYTKLRKQLAA[ξ(4-Aminopyrrolidine-3-CO)]KY[X3]NDL[β3hK]KG[βAla]T-NH2), the in-vitro protease stability entry with protease is on record as “stability is greater”.
